Tested on: hepatocytes
Experiment: Seq-Well scRNA-Seq of hepatocytes after APAP overdose (signature scores, DEG vs untreated)
Assay type: in vivo, mouse
Conditions: APAP vs UT, composite DEG

## CC(=O)Nc1ccc(O)cc1 [APAP, acetaminophen]
  Apoa5 logFC: 0.3232
  Apob logFC: 0.5802
  Apoc3 logFC: −0.7688
  Apoc4 logFC: −1.002
  Apom logFC: −0.3024
  Aqp9 logFC: −0.3109
  Arg1 logFC: 0.3179
  Arhgap5 logFC: 0.2952
  Arhgef12 logFC: 0.5908
  Arl5a logFC: 0.2648
  Arl6ip1 logFC: −0.3649
  Arpc1b logFC: 0.2597
  Arrdc3 logFC: 0.5269
  Asgr2 logFC: 0.3064
  Asl logFC: 0.5586
  Ass1 logFC: −0.3144
  Atf5 logFC: 0.329
  Atf6 logFC: 0.3778
  Atp1a1 logFC: 0.4191
  Atp1b1 logFC: 0.3702
  Atp2a2 logFC: 0.495
  Atp2b1 logFC: 0.3321
  Atp5b logFC: 0.2917
  Atp5c1 logFC: −0.3476
  Atp5g3 logFC: −0.3002
  Atp5k logFC: −0.4773
  Atp5o logFC: −0.3316
  Atp6v1f logFC: −0.2529
  Atp11c logFC: 0.2605
  Atp13a3 logFC: 0.3945
  Atp5h logFC: −0.6398
  Atp5d logFC: 0.2501
  Atxn7l3b logFC: 0.3062
  Azin1 logFC: 0.2701
  B2m logFC: −0.418
  B4galt5 logFC: 0.4763
  BC025446 logFC: 0.2942
  BC089597 logFC: 0.2622
  Baat logFC: −0.3086
  Bach1 logFC: 0.8323
  Bbox1 logFC: −0.4082
  Bche logFC: 0.3134
  Bckdha logFC: −0.35
  Bcl2l1 logFC: 0.7751
  Bet1 logFC: −0.2966
  Bfar logFC: 0.2903
  Bhmt2 logFC: −0.3114
  Bhmt logFC: −0.5202
  Birc6 logFC: 0.3444
  Bnip3 logFC: 0.4032
  Bola3 logFC: −0.3689
  Bphl logFC: −0.4075
  Bptf logFC: 0.3245
  Brap logFC: 0.3492
  Brd2 logFC: 0.5715
  Bsg logFC: −0.3152
  Bst2 logFC: −0.3156
  Btaf1 logFC: 0.2755
  Bzw1 logFC: 0.2948
  C1qb logFC: 0.6817
  C3 logFC: 0.4495
  C4b logFC: 0.2833
  C8b logFC: −0.3602
  C8g logFC: −0.6545
  C9 logFC: −0.4271
  C130074G19Rik logFC: −0.3563
  C230081A13Rik logFC: 0.427
  Cald1 logFC: 0.3737
  Calr logFC: 0.5551
  Camk2n1 logFC: 0.2501
  Caprin1 logFC: 0.2628
  Car3 logFC: −1.036
  Car5a logFC: −0.3088
  Cars logFC: 0.3158
  Cast logFC: 0.4009
  Cbr1 logFC: 0.2847
  Ccbl1 logFC: −0.3649
  Ccl6 logFC: 0.7891
  Ccs logFC: −0.4267
  Cd1d1 logFC: 0.2912
  Cd5l logFC: 0.6935
  Cd14 logFC: 0.3621
  Cd163 logFC: 0.4408
  Cdkn1a logFC: 1.215
  Cebpa logFC: −0.3916
  Cela1 logFC: −0.2723
  Cep85l logFC: 0.2779
  Cers6 logFC: 0.5328
  Ces1b logFC: 0.373
  Ces1f logFC: −0.3126
  Ces3a logFC: −0.5253
  Ces1d logFC: −0.4289
  Cfhr1 logFC: −0.3253
  Chac2 logFC: −0.2865
  Chd1 logFC: 0.3788
  Chka logFC: 1.375
  Chpt1 logFC: 0.3566
  Cideb logFC: −0.3684
  Cidec logFC: 0.2994
  Cisd1 logFC: −0.3727
  Cldn2 logFC: −0.2511
  Cldn3 logFC: −0.3145
  Clec4f logFC: 1.108
  Clec4d logFC: 0.2636
  Cnpy2 logFC: −0.3729
  Coa6 logFC: −0.4114
  Commd6 logFC: −0.3645
  Comt logFC: −0.3684
  Copb2 logFC: 0.2839
  Copz1 logFC: 0.2577
  Coq9 logFC: −0.3479
  Coro1c logFC: 0.3067
  Cox4i1 logFC: −0.516
  Cox5a logFC: 0.4024
  Cox6a1 logFC: −0.4872
  Cox6b1 logFC: −0.362
  Cox6c logFC: −0.8443
  Cox8a logFC: 0.4417
  Cpne3 logFC: 0.258
  Cpt1a logFC: 0.3729
  Crat logFC: 0.2556
  Creb3l2 logFC: 0.4272
  Creb3l3 logFC: 0.2757
  Creg1 logFC: 0.2768
  Creld2 logFC: 0.6087
  Csad logFC: −0.5598
  Ctage5 logFC: 0.3287
  Cth logFC: −0.5109
  Ctnnb1 logFC: 0.2957
  Ctsa logFC: 0.252
  Ctsb logFC: 0.5213
  Ctsh logFC: 0.3245
  Ctss logFC: 0.7642
  Cvp2e1 logFC: −2.319
  Cxcl1 logFC: 0.4498
  Cxcl12 logFC: −0.3058
  Cxcr2 logFC: 0.4023
  Cyp4f14 logFC: −0.2959
  Cyp4f15 logFC: −0.2998
  Cyp27a1 logFC: −0.3735
  D10Jhu81e logFC: −0.3957
  D10Wsu102e logFC: 0.5878
  D17Wsu92e logFC: 0.372
  Dbi logFC: −0.7164
  Ddah1 logFC: −0.312
  Ddb1 logFC: 0.2778
  Ddc logFC: −0.3608
  Ddx6 logFC: 0.4443
  Ddx27 logFC: 0.2522
  Decr1 logFC: 0.4664
  Decr2 logFC: 0.4189
  Dennd5b logFC: 0.2935
  Deptor logFC: 0.2606
  Derl2 logFC: −0.3317
  Dgat2 logFC: −0.3433
  Dhcr24 logFC: 0.4238
  Dhdh logFC: −0.3348
  Dhrs4 logFC: −0.3321
  Dhx9 logFC: 0.3504
  Dmgdh logFC: 0.2658
  Dnajb9 logFC: 0.2586
  Dnajb11 logFC: 0.3154
  Dnajc3 logFC: 0.4564
  Dnajc19 logFC: −0.316
  Dusp5 logFC: 0.2964
  Dync1h1 logFC: 0.3796
  Dync1li1 logFC: 0.2624
  Ebp logFC: −0.3553
  Ech1 logFC: −0.4291
  Echs1 logFC: −0.3316
  Eci1 logFC: −0.2764
  Eci2 logFC: 0.311
  Edem1 logFC: 0.2869
  Edf1 logFC: −0.3817
  Eef1a1 logFC: 0.4393
  Efhd2 logFC: 0.5838
  Egfr logFC: 0.505
  Egr1 logFC: 0.5846
  Ehhadh logFC: −0.2505
  Ei24 logFC: 0.2573
  Eif4b logFC: 0.3682
  Eif4g2 logFC: 0.5597
  Eif5 logFC: 0.5763
  Ell2 logFC: 0.4172
  Elovl2 logFC: 0.4522
  Elovl3 logFC: −0.676
  Ephx2 logFC: −0.3693
  Eprs logFC: 0.3701
  Erbb2ip logFC: 0.3332
  Erp44 logFC: 0.2795
  Esd logFC: −0.2808
  Ethe1 logFC: −0.3334
  Etnppl logFC: 0.4967
  Ets2 logFC: 0.6956
  F2 logFC: 0.3213
  F9 logFC: 0.2568
  F10 logFC: 0.2791
  F12 logFC: 0.2567
  Fah logFC: 0.3025
  Fam25c logFC: −0.2977
  Fam107b logFC: 0.4633
  Fam120a logFC: 0.28

Reference: patent US20230053540A1, “TREATMENT OF LIVER INJURY” (Massachusetts Institute of Technology, priority 2019, published 2023)
